{
  "source": "patent US10406120B2",
  "about": "“Methods and compositions for treating kidney disorders” (Golden Biotechnology Corporation, priority 2013, dated 2019)",
  "key": {"MCP-1": {"test_system": "MCP-1", "test": "AcP-IgAN model: serum MCP-1 ELISA", "format": "in vivo, B cell-deficient mice", "conditions": "AcP-IgAN mice, day 3 until day 28, vs control AcP-IgAN mice; only baseline levels", "experimental": "(§1) B cell-deficient mice (B6.129S2-Igh-6tm1Cgn/J) were obtained from the Academia Sinica (Professor John T. Kung, Institute of Molecular Biology), and maintained at the animal center of the National Defense Medical Center, Taipei, Taiwan. AcP-IgAN was induced in the mice by daily injection of purified IgA anti-phosphorylcholine antibodies and pneumococcal C-polysaccharide (PnC) as described previously (Chao, et al., Kidney Int. 70:283-297; 2006). All animal experiments were performed with the approval of the Institutional Animal Care and Use Committee of The National Defense Medical Center, Taiwan, and were consistent with the NIH Guide for the Care and Use of Laboratory Animals.\nSerum levels of IL-1β (eBiosceience, CA), IL-6 (eBiosceience), IL-18 (MBL, Japan), and MCP-1 (eBiosceience) were measured using commercial ELISA kits according to the manufacturer's instructions."}, "[1]": {"test": "FSGS model: renal histopathology (H&E)", "format": "in vivo, BALB/c mice", "conditions": "FSGS mice, 50 mg/kg by gavage daily, day 14 to day 21, vs control FSGS mice", "experimental": "Experiments described herein were performed on 8-week-old female BALB/c mice. The FSGS mice were injected intravenously with a single dose of adriamycin (0.1 mg/10 g body weight). […] BALB/c mice intraperitoneal injected with normal saline were used as normal controls, while ASLN mice given vehicle (corn oil) by gavage were used as disease controls. Mice were killed at day 7, 14, or 21 after disease induction, and spleen, renal cortical tissue, and blood samples collected and stored appropriately until analysis. All animal experiments were performed with the ethical approval of the Institutional Animal Care and Use Committee of The National Defense Medical Center, Taiwan and performed according to the ethical rules in the NIH Guide for the Care and Use of Laboratory Animals.\nFormalin-fixed and paraffin-embedded renal sections were prepared as described in Shui et al. for renal pathologic evaluation. (Shui, et al., Transl Res, 150: 216-222, 2007) Renal pathology and scoring of renal lesions were performed according to the known method disclosed in Shui. […] The number of glomeruli with EPHLs was expressed as a percentage of the total number of evaluated glomeruli according to methods disclosed before (see for example, Shui, et al., Nephrol Dial Transplant, 21: 1794-1802, 2006; Ka, et al., Nephrol Dial Transplant, 21: 288-298, 2006)."}, "ROS": {"test_system": "ROS", "test": "AcP-IgAN model: ROS levels", "format": "in vivo, B cell-deficient mice", "conditions": "AcP-IgAN mice", "experimental": "Kidney in-situ superoxide anion production was determined by DHE labeling according to the known method. (Wu, et al., Nephrol Dial Transplant, 2008, 23: 3082-3090, or Ka, et al., J. Am. Soc. Nephrol. 2007, 18:2473-2485) Fluorescent images were quantified by counting the percentage of positive nuclei in the total nuclei per kidney cross section. Sera and kidney tissues were assessed for superoxide anion according to the known method. (Wu, et al., J Pineal Res, 2001, 30: 147-156, or Ka, et al., J. Am. Soc. Nephrol. 2007, 18:2473-2485) For ROS levels of serum, urine, and renal tissue, the samples were incubated with Krebs-HEPES buffer, and lucigenin (Sigma-Aldrich Chemical Co, MO) at 1.25 mM was used as substrate. Luminescence counts were obtained in duplicate at 15 sec intervals by a microplate luminometer (Hidex Microplate Luminometer, Finland), as previously described (Kretzler, et al.,. Virchows Arch, 425: 181-193, 1994). The superoxide anion activity was expressed as relative luminescence units (RLU) per 15 min per mg of organ dry weight (i.e., RUL/15 min/mg) or RLU/15 min/ml.\nas §1"}, "IL-1beta": {"test_system": "IL-1beta", "test": "AcP-IgAN model: renal IL-1beta mRNA", "format": "in vivo, B cell-deficient mice", "experimental": "as §1\n(§2) Total cortical kidney RNA was extracted with TriZOL reagents (Invitrogen) from cortical tissue of the kidney. For first-strand cDNA synthesis, 1.5 μg of total RNA was used in a single-round reverse transcriptase reaction. The reaction mixture consisted of 0.9 μl of Oligo (dT) 12 to 18 primer, 1.0 mM deoxyribonucleotide triphosphate (dNTP), 1 μl first strand buffer, 0.4 mM dithiothreitol, 80 U of RNaseout recombinant ribonuclease inhibitor, and 300 U of superscript II RNase H (Invitrogen). Real-time PCR was performed on an ABI Prism 7700 Sequence Detection System (Applied Biosystems, CA). All of the probes and primers were Assays-on-Demand Gene expression products (Applied Biosystems). […]"}, "IL-6": {"test_system": "IL-6", "test": "AcP-IgAN model: renal IL-6 mRNA and protein", "format": "in vivo, B cell-deficient mice", "conditions": "AcP-IgAN mice", "experimental": "as §1\nFor IHC, formalin fixed and paraffin embedded tissue sections or frozen sections were incubated with against IL-6 (R&D Systems, MN), MCP-1 (Santa Cruz, Calif.), F4/80 (monocytes/macrophages; Serotec, N.C.), collagen IV (Southern Biotech, AL), TGF-β1 (Santa Cruz), phopsho-NFκB p65 (Cell Signaling, MA), CD3 (pan-T cell; Serotec), CD4 (T helper cell; BioLegend, CA), CD8 (cytotoxic T cell), CD11b (macrophages/neutrophils), or CD11c (dendritic cells) (BD Biosciences, CA) antibodies. The FITC-conjugated, Alexa Fluor 488-conjugated (Invitrogen, CA) or horseradish peroxidase (HRP) conjugated secondary antibodies (DAKO, Denmark) were then applied to the sections. Hematoxylin or 4′,6-diamidino-2-phenylindole (DAKO) was used in the counter staining for nuclei.\nas §2, with “CA).” for “CA). All of the probes and primers were Assays-on-Demand Gene expression products (Applied Biosystems).”"}, "[2]": {"conditions": "day 28, vs control AcP-IgAN mice"}},
  "data": [
    {"smiles": "COC1=C(OC)[C@H](O)[C@H](C/C=C(\\C)CC/C=C(\\C)CCC=C(C)C)[C@@H](C)C1=O", "note": "[Compound 1, Antroquinonol]", "values": [
      {"measurement": "serum levels of MCP-1 (elevation)", "setting": "MCP-1", "value": "greatly inhibited"},
      {"measurement": "progressive renal lesions (sclerotic lesions, glomeruli containing EPHL, peri-glomerular mononuclear leukocyte infiltration), H&E", "setting": "[1]", "value": "greatly reduced"},
      {"measurement": "ROS levels in sera", "setting": "ROS; day 3, vs control AcP-IgAN mice", "value": "substantial reduction"},
      {"measurement": "ROS levels in renal tissues", "setting": "ROS; [2]", "value": "substantial reduction"},
      {"measurement": "ROS levels in sera", "setting": "ROS; [2]", "value": "substantial reduction"},
      {"measurement": "ROS levels in urine", "setting": "ROS; [2]", "value": "substantial reduction"},
      {"measurement": "renal mRNA levels of IL-1beta (elevation)", "setting": "IL-1beta; AcP-IgAN mice, day 28, vs control AcP-IgAN mice", "value": "significantly inhibited"},
      {"measurement": "renal IL-1beta mRNA expression", "setting": "IL-1beta; all mice, day 3", "value": "no detectable increase"},
      {"measurement": "renal expression levels of mRNA and protein of IL-6", "setting": "IL-6; day 3", "value": "no such effect"},
      {"measurement": "renal expression levels of mRNA of IL-6", "setting": "IL-6; [2]", "value": "significantly reduced"},
      {"measurement": "renal expression levels of protein of IL-6", "setting": "IL-6; [2]", "value": "significantly reduced"}
    ]}
  ]
}
